Consider 22 molecules from patent US20240124408A1 (Sanofi, priority 2020, published 2024).

Where a name gives a salt, the structure may show the parent alone. Bounds are passed on as bounds.

Common to all, as to type: cell-based
The target of assay [1] is T1, human TRPM8 (Homo sapiens, UniProt Q7Z2W7).
T1 construct: expressed in transfected cells; host or cells: CHO (p658 mammalian expression vector)
Kind of assay: In vitro human TRPM8 automated patch-clamp assay (SyncroPatch 384PE, CHO cells). As to conditions: CHO cells expressing human TRPM8, 28° C. A digest of the protocol: (§1)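 Whole-cell automated patch clamp on engineered CHO lines at 28 °C, held at −60 mV, with −80 to +80 mV ramps every 5 s; one compound concentration per well. Peak current minus pre-addition baseline was normalised to no-compound control and Emax, and EC50 was fitted; 200 μM menthol wells served as control.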
In general terms: The patch-clamp technique gives a direct electrical read-out from membranes.

Assay [2] has as its target T1, human TRPM8. Description: In vitro human TRPM8 fluorescence calcium flux assay (recombinant CHO cells, Fluo4-AM, FDSS6000). As to conditions: recombinant CHO cells expressing human TRPM8; menthol-related EC50, normalized to 100 μM menthol. A digest of the protocol:
(§2)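 Agonist EC50 values come from sixteen-point dose responses normalized to the 100 μM menthol maximum, fitted sigmoidally. Calcium rise was followed for 3 min post-addition in recombinant CHO lines (human or pig TRPM8). Cells were dye-loaded with 2 μM Fluo4-AM, 1 h at room temperature, probenecid-containing HBSS.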
On the technique in general: A change in cytosolic calcium serves as a functional read-out for many receptors and channels.

The target of assay [3] is T2, pig TRPM8 (Sus scrofa, UniProt F1SM15).
T2 construct: expressed in transfected cells; host or cells: CHO (pcDNA5/FRT/TO vector; hygromycin B and blasticidin selection)
Description: In vitro pig TRPM8 automated patch-clamp assay (SyncroPatch 384PE, CHO cells). Conditions: CHO cells expressing pig TRPM8, 28° C. Put shortly: as §1

Assay [4] deals with T2, pig TRPM8. Description: In vitro pig TRPM8 fluorescence calcium flux assay (recombinant CHO cells, Fluo4-AM, FDSS6000). Conditions: recombinant CHO cells expressing pig TRPM8; menthol-related EC50, normalized to 100 μM menthol. A digest of the protocol:
as §2

T1 sequence (Q7Z2W7 whole entry): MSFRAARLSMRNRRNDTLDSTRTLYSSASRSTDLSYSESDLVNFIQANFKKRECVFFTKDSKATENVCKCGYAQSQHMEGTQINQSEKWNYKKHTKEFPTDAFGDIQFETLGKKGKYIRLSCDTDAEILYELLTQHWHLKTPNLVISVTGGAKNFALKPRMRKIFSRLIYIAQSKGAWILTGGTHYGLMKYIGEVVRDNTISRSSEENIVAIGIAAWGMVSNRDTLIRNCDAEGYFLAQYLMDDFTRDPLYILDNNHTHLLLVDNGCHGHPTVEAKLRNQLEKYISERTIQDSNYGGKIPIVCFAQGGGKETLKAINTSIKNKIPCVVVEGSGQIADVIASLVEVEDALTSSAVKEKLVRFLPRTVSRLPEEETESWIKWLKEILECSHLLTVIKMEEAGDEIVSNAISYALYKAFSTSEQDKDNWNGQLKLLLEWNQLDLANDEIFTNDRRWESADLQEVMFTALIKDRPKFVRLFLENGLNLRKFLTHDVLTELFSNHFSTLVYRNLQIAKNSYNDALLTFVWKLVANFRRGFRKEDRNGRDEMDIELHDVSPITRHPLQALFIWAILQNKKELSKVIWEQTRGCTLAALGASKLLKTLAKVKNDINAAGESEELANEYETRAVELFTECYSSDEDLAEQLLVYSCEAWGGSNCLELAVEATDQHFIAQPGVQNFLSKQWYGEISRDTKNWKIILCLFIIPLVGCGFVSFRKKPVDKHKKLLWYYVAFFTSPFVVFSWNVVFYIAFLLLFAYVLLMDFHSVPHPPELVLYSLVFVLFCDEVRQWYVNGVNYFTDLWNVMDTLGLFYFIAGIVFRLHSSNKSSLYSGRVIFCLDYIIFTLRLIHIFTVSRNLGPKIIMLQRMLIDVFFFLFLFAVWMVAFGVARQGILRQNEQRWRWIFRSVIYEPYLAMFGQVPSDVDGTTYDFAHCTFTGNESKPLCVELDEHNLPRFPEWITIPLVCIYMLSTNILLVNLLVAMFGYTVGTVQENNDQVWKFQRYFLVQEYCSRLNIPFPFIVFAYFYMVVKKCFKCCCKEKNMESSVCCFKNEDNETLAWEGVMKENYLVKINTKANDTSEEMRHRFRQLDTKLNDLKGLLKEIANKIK
T2 sequence (F1SM15 1-1104): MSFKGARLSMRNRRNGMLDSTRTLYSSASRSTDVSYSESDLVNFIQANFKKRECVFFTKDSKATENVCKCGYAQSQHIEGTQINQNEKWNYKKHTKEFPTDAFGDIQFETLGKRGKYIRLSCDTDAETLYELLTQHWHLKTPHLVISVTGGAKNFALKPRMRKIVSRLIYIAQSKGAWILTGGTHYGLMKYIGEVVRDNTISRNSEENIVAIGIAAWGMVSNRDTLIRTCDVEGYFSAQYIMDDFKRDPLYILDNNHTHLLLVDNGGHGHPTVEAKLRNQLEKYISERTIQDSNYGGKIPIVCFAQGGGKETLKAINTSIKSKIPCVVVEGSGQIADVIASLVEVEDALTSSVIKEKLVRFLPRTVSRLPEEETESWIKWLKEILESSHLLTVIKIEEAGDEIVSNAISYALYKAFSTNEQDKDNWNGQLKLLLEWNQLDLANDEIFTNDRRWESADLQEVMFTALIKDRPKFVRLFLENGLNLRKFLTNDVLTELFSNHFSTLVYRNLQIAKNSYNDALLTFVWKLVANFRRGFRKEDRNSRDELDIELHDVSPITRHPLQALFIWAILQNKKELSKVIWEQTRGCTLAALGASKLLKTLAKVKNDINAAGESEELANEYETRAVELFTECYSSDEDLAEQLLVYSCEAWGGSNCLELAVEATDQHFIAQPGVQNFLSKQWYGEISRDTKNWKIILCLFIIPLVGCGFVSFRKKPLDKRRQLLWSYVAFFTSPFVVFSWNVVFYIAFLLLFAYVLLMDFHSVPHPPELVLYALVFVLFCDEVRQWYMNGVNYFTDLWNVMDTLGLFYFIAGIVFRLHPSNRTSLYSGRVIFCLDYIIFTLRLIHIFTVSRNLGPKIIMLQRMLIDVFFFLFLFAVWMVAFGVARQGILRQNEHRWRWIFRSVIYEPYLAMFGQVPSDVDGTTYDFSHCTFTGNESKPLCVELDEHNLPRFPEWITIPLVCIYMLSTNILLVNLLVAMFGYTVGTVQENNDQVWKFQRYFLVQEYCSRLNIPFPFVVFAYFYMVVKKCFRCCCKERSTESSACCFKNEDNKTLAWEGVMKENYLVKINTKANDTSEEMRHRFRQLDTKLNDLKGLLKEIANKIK

For orientation: EC50 means the concentration that produces a half-maximal response. On to `CC(C)[C@@H]1CC[C@@H](C)C[C@@]1(O)C(=O)NC[C@@H](OCCO)c1ccccc1` [Example 56, (1S,2S,5R)-1-hydroxy-N—((S)-2-(2-hydroxyethoxy)-2-phenylethyl)-2-isopropyl-5-methylcyclohexane-1-carboxamide], for which the EC50 at human TRPM8 [1] is more than 10000 nM; on human TRPM8 [2], 19.6 nM; on pig TRPM8 [3], 6160 nM; at pig TRPM8 [4] it was 11.2 nM.

As to `COC(=O)CCc1ccccc1CCNC(=O)[C@]1(O)C[C@H](C)CC[C@H]1C(C)C` [Example 93, methyl 3-(2-(2-((1S,2S,5R)-1-hydroxy-2-isopropyl-5-methylcyclohexane-1-carboxamido)ethyl)phenyl)propanoate], the EC50 worked out at 2800 nM at human TRPM8 [1], 49.3 nM at human TRPM8 [2], 2000 nM on pig TRPM8 [3] and 67.8 nM on pig TRPM8 [4].

In the case of `CC(C)[C@@H]1CC[C@@H](C)C[C@@]1(O)C(=O)NCC(=O)Nc1ccccc1` [Example 129, (1S,2S,5R)-N-(2-anilino-2-oxo-ethyl)-1-hydroxy-2-isopropyl-5-methyl-cyclohexanecarboxamide], the EC50 came to 3000 nM at human TRPM8 [1], 6.9 nM on human TRPM8 [2], 1250 nM at pig TRPM8 [3] and 2.6 nM on pig TRPM8 [4].

As to `CCOC(=O)c1cccc(CCNC(=O)[C@]2(O)C[C@H](C)CC[C@H]2C(C)C)c1` [Example 28, ethyl 3-(2-((1S,2S,5R)-1-hydroxy-2-isopropyl-5-methylcyclohexane-1-carboxamido)ethyl)benzoate], the EC50 on human TRPM8 [1] was 1440 nM; on human TRPM8 [2], 250 nM; on pig TRPM8 [3], 5400 nM; at pig TRPM8 [4], 311 nM.

Turning to `CC(C)[C@@H]1CC[C@@H](C)C[C@@]1(O)C(=O)NCC(CCO)c1ccccc1` (stereo partly drawn) [Example 66, (1S,2S,5R)-1-hydroxy-N-(4-hydroxy-2-phenylbutyl)-2-isopropyl-5-methylcyclohexane-1-carboxamide], the EC50 on human TRPM8 [1] was 3700 nM; on human TRPM8 [2], 51 nM; at pig TRPM8 [3], 6060 nM; at pig TRPM8 [4] it was 75 nM.

As for `CC(C)[C@@H]1CC[C@@H](C)C[C@@]1(O)C(=O)NCC(C(=O)OCC(C)(C)N)c1ccccc1` (stereo partly drawn) [Example 73, 2-amino-2-methylpropyl 3-((1S,2S,5R)-1-hydroxy-2-isopropyl-5-methylcyclohexane-1-carboxamido)-2-phenylpropanoate hydrochloride], the EC50 at human TRPM8 [1] turned out to be 690 nM; on human TRPM8 [2], 4 nM; at pig TRPM8 [3], 1120 nM; on pig TRPM8 [4], 8 nM.

For `CC(C)[C@@H]1CC[C@@H](C)C[C@@]1(O)C(=O)NCC(=O)c1cccc(F)c1F` [Example 142, (1S,2S,5R)-N-[2-(2,3-difluorophenyl)-2-oxo-ethyl]-1-hydroxy-2-isopropyl-5-methyl-cyclohexanecarboxamide], the EC50 amounted to 1410 nM on human TRPM8 [1], 12 nM on human TRPM8 [2], 3290 nM on pig TRPM8 [3] and 4 nM on pig TRPM8 [4].

For the molecule `CC(C)[C@@H]1CC[C@@H](C)C[C@@]1(O)C(=O)NCCc1cccc(OCC(O)CO)c1` (stereo partly drawn) [Example 10, (1S,2S,5R)—N-(3-(2,3-dihydroxypropoxy)phenethyl)-1-hydroxy-2-isopropyl-5-methylcyclohexane-1-carboxamide], the EC50 on human TRPM8 [1] turned out to be 4130 nM; at human TRPM8 [2] it was 21.4 nM; on pig TRPM8 [3], 4800 nM; at pig TRPM8 [4], 9.7 nM.

As to `COC(=O)COc1cccc(CCNC(=O)[C@]2(O)C[C@H](C)CC[C@H]2C(C)C)c1` [Example 64, methyl 2-(3-(2-((1S,2S,5R)-1-hydroxy-2-isopropyl-5-methylcyclohexane-1-carboxamido)ethyl)phenoxy)acetate], the EC50 came to 5820 nM at human TRPM8 [1], 16.6 nM on human TRPM8 [2], 3870 nM at pig TRPM8 [3] and 8.3 nM at pig TRPM8 [4].

For the molecule `CC(C)[C@@H]1CC[C@@H](C)C[C@@]1(O)C(=O)NC[C@@H](O)c1cccc(CO)c1` [Example 44, (1S,2S,5R)-1-hydroxy-N-((2S)-hydroxy-2-(3-(hydroxymethyl)phenyl)ethyl)-2-isopropyl-5-methylcyclohexane-1-carboxamide], the EC50 amounted to 1800 nM on human TRPM8 [1], 34.9 nM at human TRPM8 [2], 711 nM on pig TRPM8 [3] and 10.6 nM at pig TRPM8 [4].

As for `CC(C)[C@@H]1CC[C@@H](C)C[C@@]1(O)C(=O)NCC(O)c1ccccc1Cl` (stereo partly drawn) [Example 160, (1S,2S,5R)-N-[2-(2-chlorophenyl)-2-hydroxy-ethyl]-1-hydroxy-2-isopropyl-5-methyl-cyclohexanecarboxamide], the EC50 at human TRPM8 [1] was determined as 620 nM; on human TRPM8 [2] it was 16.1 nM; at pig TRPM8 [3], 480 nM; at pig TRPM8 [4] it was 16.4 nM.

Consider `COC(=O)c1cccc(C(O)CNC(=O)[C@]2(O)C[C@H](C)CC[C@H]2C(C)C)c1` (stereo partly drawn) [Example 34, methyl 3-(1-hydroxy-2-((1S,2S,5R)-1-hydroxy-2-isopropyl-5-methylcyclohexane-1-carboxamido)ethyl)benzoate], for which the EC50 worked out at 4590 nM on human TRPM8 [1], 97 nM on human TRPM8 [2], 3210 nM at pig TRPM8 [3] and 80 nM at pig TRPM8 [4].

In the case of `COc1cc(C=O)ccc1OC(=O)CNC(=O)[C@]1(O)C[C@H](C)CC[C@H]1C(C)C` [Example 68, 4-formyl-2-methoxyphenyl ((1S,2S,5R)-1-hydroxy-2-isopropyl-5-methylcyclohexane-1-carbonyl)glycinate], the EC50 at human TRPM8 [1] was found to be 2690 nM; on human TRPM8 [2], 44 nM; on pig TRPM8 [3], 3640 nM; on pig TRPM8 [4] it was 32 nM.

With `CC(C)[C@@H]1CC[C@@H](C)C[C@@]1(O)C(=O)NCC(=O)c1ccccc1O` [Example 38, (1S,2S,5R)-1-hydroxy-N-(2-(2-hydroxyphenyl)-2-oxoethyl)-2-isopropyl-5-methylcyclohexane-1-carboxamide], the EC50 at human TRPM8 [1] was determined as 470 nM; on human TRPM8 [2], 2.4 nM; at pig TRPM8 [3], 276 nM; at pig TRPM8 [4] it was 1.8 nM.

As to `CC(C)[C@@H]1CC[C@@H](C)C[C@@]1(O)C(=O)NCCc1ccccc1OC[C@H](O)CO` [Example 24, (1S,2S,5R)—N-(2-((R)-2,3-dihydroxypropoxy)phenethyl)-1-hydroxy-2-isopropyl-5-methylcyclohexane-1-carboxamide], the EC50 on human TRPM8 [1] is 2580 nM; on human TRPM8 [2], 7.8 nM; on pig TRPM8 [3], 1700 nM; on pig TRPM8 [4] it was 13.4 nM.

Take `CC(C)[C@@H]1CC[C@@H](C)C[C@@]1(O)C(=O)NCC(=O)Nc1ccc(O)cc1` [Example 88, (1S,2S,5R)-1-hydroxy-N-(2-((4-hydroxyphenyl)amino)-2-oxoethyl)-2-isopropyl-5-methylcyclohexane-1-carboxamide]: the EC50 on human TRPM8 [1] was 1500 nM; on human TRPM8 [2], 56.7 nM; at pig TRPM8 [3], 1090 nM; on pig TRPM8 [4], 20 nM.

`CC(C)[C@@H]1CC[C@@H](C)C[C@@]1(O)C(=O)NCCc1ccccc1CCN` [Example 53, (1S,2S,5R)—N-(2-(2-aminoethyl)phenethyl)-1-hydroxy-2-isopropyl-5-methylcyclohexane-1-carboxamide]: the EC50 at human TRPM8 [1] is 200 nM; on human TRPM8 [2], 2.4 nM; at pig TRPM8 [3], 326 nM; on pig TRPM8 [4] it was 2.6 nM.

In the case of `CC(C)[C@@H]1CC[C@@H](C)C[C@@]1(O)C(=O)NCC(CO)c1ccccc1` (single isomer, unassigned) [Example 89], the EC50 came to 3300 nM on human TRPM8 [1], 90.3 nM on human TRPM8 [2], 3250 nM at pig TRPM8 [3] and 47.6 nM on pig TRPM8 [4].

Turning to `Cc1cccc(C(F)(F)CNC(=O)[C@]2(O)C[C@H](C)CC[C@H]2C(C)C)c1` [Example 187, (1S,2S,5R)—N-[2,2-difluoro-2-(3-methylphenyl)ethyl]-1-hydroxy-2-isopropyl-5-methyl-cyclohexanecarboxamide], the EC50 worked out at 510 nM at human TRPM8 [1], 33.8 nM on human TRPM8 [2], 550 nM at pig TRPM8 [3] and 6.2 nM at pig TRPM8 [4].

With `CC(C)[C@@H]1CC[C@@H](C)C[C@@]1(O)C(=O)NCCc1ccccc1OCCO` [Example 7, (1S,2S,5R)-1-hydroxy-N-(2-(2-hydroxyethoxy)phenethyl)-2-isopropyl-5-methylcyclohexane-1-carboxamide], the EC50 on human TRPM8 [1] is 2800 nM; on human TRPM8 [2], 8.5 nM; at pig TRPM8 [3], 6190 nM; at pig TRPM8 [4] it was 8.1 nM.

On to `COc1ccccc1CCNC(=O)[C@]1(O)C[C@H](C)CC[C@H]1C(C)C` [Example 155, (1S,2S,5R)-1-hydroxy-2-isopropyl-N-[2-(2-methoxyphenyl)ethyl]-5-methyl-cyclohexanecarboxamide], for which the EC50 at human TRPM8 [1] came to 1200 nM; at human TRPM8 [2], 23.8 nM; at pig TRPM8 [3], 3500 nM; at pig TRPM8 [4], 17.4 nM.

Take `CC(C)[C@@H]1CC[C@@H](C)C[C@@]1(O)C(=O)NCC(=O)c1cccc(O)c1` [Example 39, (1S,2S,5R)-1-hydroxy-N-(2-(3-hydroxyphenyl)-2-oxoethyl)-2-isopropyl-5-methylcyclohexane-1-carboxamide]: the EC50 on human TRPM8 [1] was determined as 460 nM; on human TRPM8 [2], 1.2 nM; on pig TRPM8 [3] it was 430 nM; at pig TRPM8 [4], 0.9 nM.
